“Also recorded” adds a separate entry of the source.
Experiments:
L2G85 mice [1] = experiment: BAT imaging after intraperitoneal injection; assay type: in vivo; details: for signal from BAT (intact and excised) after intraperitoneal injection: i.p., 0.1% BSA in PBS, 30 min
Procedure: Intraperitoneal injection: Anesthetized mice received a 100 μl volume intraperitoneal injection of 200 μM FFA-luc or FFA-S-luc (0.014 mg) bound to 0.1% BSA in PBS immediately prior to imaging. Luminescent images were acquired with a 3-minute exposure back to back for 30-minutes.
BAT imaging: Anesthetized mice received 100 μl volume intraperitoneal injection of 200 μM FFA-luc (0.014 mg) immediately prior to imaging. Luminescent images were acquired with a 3-minute exposure back to back for 30-minutes. For BAT activation imaging, mice received intraperitoneal injections of the β-adrenergic stimulator CL316,243 at 1 mg/kg 20 minutes prior to the FFA-luc injection.

L2G85 mice [2] = experiment: Intestinal uptake after oral gavage, bioluminescence imaging; assay type: in vivo; details: for bioluminescent signal in the live animal after oral gavage: luciferase-expressing mice
Procedure: To translate the imaging technique described above to in vivo systems, L2G85 mice were utilized. L2G85 mice express luciferase throughout their bodies. Initial experiments focused on detection of intestinal FFA uptake using oral gavages of the FFA-luc compound. […] This is consistent with known fatty acid uptake localization and kinetics.
Gavage of FFA-luc and FFA-S-luc: Anesthetized mice received a 50 μl volume gavage of 300 μM FFA-luc or FFA-S-luc (0.01 mg) in a vehicle of 1:1 PEG 400 and propylene glycol. Mice were awake for 5 minutes post-gavage to stimulate peristalsis before they were re-anesthetized for imaging. Mice were under constant isoflurane administration in the IVIS Spectrum In Vivo Imager and luminescent images were acquired with a 5-minute exposure back to back for 60 minutes.
CT scans: Mice received a 100 μl volume gavage of 80 mg barium sulfate. After one hour, mice received a second barium sulfate gavage, immediately followed by a 50 μl volume gavage of 300 μM FFA-luc (0.01 mg) in a vehicle of 1:1 PEG 400 and propylene glycol. Mice were placed in a Mouse Imaging Shuttle Adaptor (Caliper Life Sciences) and luminescent images were acquired with a 5-minute exposure back to back for 60 minutes. Mice were then transferred to the Quantum FX μCT for CT imaging without disruption of position. Co-registration of luminescent and CT images were performed with Living Image software.

L2G85 mice [3] = details: mouse, in vivo
Procedure: (§2) To monitor uptake of FFA-luc by internal organs, FFA-luc was bound to the physiological carrier of fatty acids in the serum, i.e. albumin. As a control, animals were injected with an albumin luciferin mix.
(§3) Animal models: Transgenic mice ubiquitously expressing luciferase under control of the actin promoter were used.
(§4) Imaging equipment and software: All luminescent/photographic images were captured with the IVIS Spectrum (Caliper Life Sciences). Total flux (photons/sec) of regions of interest were calculated with the IVIS Living Image software. CT data was acquired with the Quantum FX μCT (Caliper Life Sciences).
(§5) Intravenous injection: Restrained mice received 100 μl volume tail vein injections of 20 μM FFA-luc or FFA-S-luc (0.0014 mg) bound to 0.1% bovine serum albumin (BSA) in phosphate buffered saline (PBS). Mice were immediately anesthetized and luminescent images with a 1-minute exposure were acquired.

3T3-L1-luc adipocytes = experiment: Cell-based fatty acid uptake assay (bioluminescence), adipocytes; details: BSA-bound, 0-100 μM (comparison at 20 μM, 30 min)
Procedure: (§1) Luciferase expressing cellular model (3T3-L1-Luc Cells): 3T3-L1 fibroblasts (ATCC) were stably transfected with the pGL4.51[luc2/CMV/Neo] vector (Promega). Clones with the highest level of luciferase expression were isolated and expanded.
Cell culture and treatment: 3T3-L1-luc fibroblasts were grown in DMEM containing 10% fetal bovine serum with 2 mM L-glutamine and 1% penicillin/streptomycin (DMEM/FBS). […] Differentiated cells were used in experiments on days 8-12 of differentiation.
Cell-based fatty acid uptake assays: 3T3-L1-luc adipocytes or fibroblasts were seeded into black-wall/clear-bottom-96-well plates (Costar) and treated with 100 μl of a fatty acid uptake buffer consisting of 0.1% BSA in Hank's balanced salt solution (HBSS) in addition to 2-100 μM of the compound. Plates were read immediately and luminescent images were acquired with a 5-minute exposure time back to back for 60 minutes. All cell-based assays utilized the same kinetic acquisition settings.

3T3-L1-luc fibroblasts = experiment: Cell-based fatty acid uptake assay (bioluminescence), undifferentiated fibroblasts; details: 20 μM FFA-luc, 30 min
Procedure: as §1
Cell culture and treatment: 3T3-L1-luc fibroblasts were grown in DMEM containing 10% fetal bovine serum with 2 mM L-glutamine and 1% penicillin/streptomycin (DMEM/FBS). A cell differentiation protocol was followed as previously described (Baldini et al., Cloning of a Rab3 isotype predominantly expressed in adipocytes. Proc Natl Acad Sci USA 89, 5049 (Jun. 1, 1992); Stahl et al., Insulin causes fatty acid transport protein translocation and enhanced fatty acid uptake in adipocytes. Dev Cell 2, 477 (2002)). […]
Cell-based fatty acid uptake assays: 3T3-L1-luc adipocytes or fibroblasts were seeded into black-wall/clear-bottom-96-well plates (Costar) and treated with 100 μl of a fatty acid uptake buffer consisting of 0.1% BSA in Hank's balanced salt solution (HBSS) in addition to 2-100 μM of the compound. Plates were read immediately and luminescent images were acquired with a 5-minute exposure time back to back for 60 minutes. […]

L2G85 mice [4] = experiment: Uptake after intravenous injection (albumin-bound), bioluminescence imaging; details: i.v., bound to/mixed with albumin
Procedure: as §2, §3, §4, §5

[5] = test system: FFA-luc uptake by 3T3-L1 adipocytes; experiment: FFA-SS-Luc competition assay; assay type: cell-based
Procedure: FFA-SS-Luc competition assay: 3T3-L1-luc adipocytes were seeded into black-wall/clear-bottom-96-well plates (Costar) and treated with 100 μl fatty acid uptake buffer including 20 μM FFA-luc and a titration of 0-2 mM oleate or methyl-oleate immediately prior to imaging.

[6] = test system: FFA-luc uptake by 3T3-L1-luc adipocytes; experiment: Insulin-mediated uptake of FFA-luc; assay type: cell-based; details: 20 μM FFA-luc
Procedure: Insulin-mediated uptake of FFA-luc: 3T3-L1-luc adipocytes were seeded into black-wall/clear-bottom-96-well plates (Costar). One group of cells was serum starved in DMEM for 5 hours followed by the addition of […] fatty acid uptake buffer with 20 μM FFA-luc immediately prior to imaging. A second group of cells was treated with DMEM/fetal bovine serum (FBS) for 5 hours followed by the addition of 100 μl fatty acid uptake buffer with 20 μM FFA-luc and 1 ug/mL insulin immediately prior to imaging.

C[C@H](Cc1ccc2c(c1)OC(C(=O)[O-])(C(=O)[O-])O2)NC[C@H](O)c1cccc(Cl)c1.[Na+].[Na+] [CL316,243, reference compound]
effect on compound 1 uptake by BAT (L2G85 mice [1]; CL316,243 1 mg/kg i.p.): highly reproducible and significant increase

O=C(O)CCCCCCCCCCCCCCCSCCCOC(=O)Oc1ccc2nc(C3=N[C@@H](C(=O)O)CS3)sc2c1 [FFA-S-luc, (S)-2-(6-((3-(15-carboxypentadecylthio)propoxy)carbonyloxy)benzo[d]thiazol-2-yl)-4,5-dihydrothiazole-4-carboxylic acid]
bioluminescent signal in the live animal after oral gavage (L2G85 mice [2]): weak and diffuse signal
signal from BAT (intact and excised) after intraperitoneal injection (L2G85 mice [1]): little or no signal

O=C(O)CCCCCCCCCCCCCCCSSCCCOC(=O)Oc1ccc2nc(C3=N[C@@H](C(=O)O)CS3)sc2c1 [FFA-luc, (S)-2-(6-((3-((15-carboxypentadecyl)disulfanyl)propoxy)carbonyloxy)benzo[d]thiazol-2-yl)-4,5-dihydrothiazole-4-carboxylic acid]
uptake by excised organs after tail vein injection (L2G85 mice [3]): taken up by several organs
light production of removed interscapular brown adipose tissue after injection (L2G85 mice [3]; iv): robust light production
photon emission from isolated heart after intravenous injection (L2G85 mice [3]; iv): high signal
photon emission from isolated liver after intravenous injection (L2G85 mice [3]; iv): low signal
signal from small intestine, excised GI tract after oral gavage (L2G85 mice [2]; ex vivo, small intestine / duodenum): robust signal; also recorded: strongest signal was generated by the proximal duodenum
signal from stomach and colon, excised GI tract after oral gavage (L2G85 mice [2]; ex vivo, stomach and colon): negative
bioluminescent signal in the live animal after oral gavage (L2G85 mice [2]): distinct signal emanating from an area consistent with the small intestine; also recorded: abdominal signal
uptake by luciferase-expressing 3T3 L1 adipocytes (light signal / uptake rate) (3T3-L1-luc adipocytes): robust, dose-dependent signal
uptake kinetics by undifferentiated fibroblast-like 3T3 L1 cells versus adipocytes (3T3-L1-luc fibroblasts): significantly lower
signal from BAT (intact and excised) after intraperitoneal injection (L2G85 mice [1]): robust light signal

COC(=O)CCCCCCCCCCCCCCCSSCCCOC(=O)Oc1ccc2nc(C3=N[C@@H](C(=O)O)CS3)sc2c1 [Me-FFA-luc, (S)-2-(6-((3-((16-methoxy-16-oxohexadecyl)disulfanyl)propoxy)carbonyloxy)benzo[d]thiazol-2-yl)-4,5-dihydrothiazole-4-carboxylic acid]
uptake by luciferase-expressing 3T3 L1 adipocytes (light signal / uptake rate) (3T3-L1-luc adipocytes; listed as methyl ester of the FFA-luc): slower, non-saturable uptake
uptake by luciferase-expressing 3T3 L1 adipocytes (light signal / uptake rate) (3T3-L1-luc adipocytes; listed as methyl-FFA-luc): significantly lower uptake rates

O=C(O)[C@H]1CSC(c2nc3ccc(O)cc3s2)=N1 [luciferin, reference compound]
bioluminescent signal in the live animal after intravenous injection (L2G85 mice [4]): very rapid, bright, and delocalized signal
uptake by luciferase-expressing 3T3 L1 adipocytes (light signal / uptake rate) (3T3-L1-luc adipocytes): significantly lower uptake rates

CCCCCCCC/C=C\CCCCCCCC(=O)OC [methyl-oleate]
competition with FFA-luc uptake by adipocytes ([5]; 20 μM FFA-luc, excess competitor (0-2 mM titration)): did not compete and not

CCCCCCCC/C=C\CCCCCCCC(=O)O [oleate]
IC50 ([5]; Mus musculus, 3T3-L1, read-out: IC50, inhibition of uptake of FFA-luc by 3T3-L1 adipocytes): 17 µM

insulin
effect on FFA-luc uptake by adipocytes [6]: stimulatory effect

Source: patent US10010629B2, “Compositions and methods for in vivo imaging” (The Regents of the University of California, priority 2010, dated 2018)
